Laboratory results as given in PubChem BioAssay (NCI).
Several values for one entry are separate records, joined by “and”; a condition that tells them apart may be missing. Equal values may be shown once.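 Each compound was tested at five concentrations against cells in 96-well plates for 48 hours. GI50 = concentration required for 50% inhibition of growth. At the TGI there is no net growth.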

How the values were obtained:
Test in all cases: NCI-60 cell line screen, 48 h
[1] = test system: M14 melanoma
[2] = test system: SK-MEL-28 melanoma
[3] = test system: UACC-257 melanoma
[4] = test system: U251 CNS
[5] = test system: KM12 colon
[6] = test system: 786-0 renal
[7] = test system: HCT-15 colon
[8] = test system: HOP-62 NSCLC
[9] = test system: TK-10 renal
[10] = test system: SN12C renal

## O=C(/C=C(\[O-])c1ccccc1)CCCCCCC(=O)/C=C(\[O-])c1ccccc1.O=C(/C=C(\[O-])c1ccccc1)CCCCCCC(=O)/C=C(\[O-])c1ccccc1.O=C(/C=C(\[O-])c1ccccc1)CCCCCCC(=O)/C=C(\[O-])c1ccccc1.[Nd+3].[Nd+3]
[1]
  GI50: > 50 µM
  TGI: > 50 µM
[2]
  GI50: > 50 µM
  TGI: > 50 µM
[3]
  GI50: > 50 µM
  TGI: > 50 µM
[4]
  GI50: > 50 µM
  TGI: > 50 µM
[5]
  GI50: > 50 µM
  TGI: > 50 µM
[6]
  GI50: > 50 µM
  TGI: > 50 µM
[7]
  GI50: > 50 µM
  TGI: > 50 µM
[8]
  GI50: > 50 µM
  TGI: > 50 µM
[9]
  GI50: > 50 µM
  TGI: > 50 µM
[10]
  GI50: > 50 µM
  TGI: > 50 µM

## COc1ccc(/C=C/C(C)=N/OCC(=O)Nc2ccc(Cl)cc2)cc1
[1]
  GI50: 3.01 µM
  TGI: 14.1 µM
[2]
  GI50: 3.17 µM
  TGI: 31.6 µM
[3]
  GI50: 3.4 µM
  TGI: 22.2 µM
[4]
  GI50: 2.94 µM
  TGI: 13.7 µM
[5]
  GI50: 2.24 µM
  TGI: 16.5 µM
[6]
  GI50: 4.2 µM
  TGI: 26.6 µM
[7]
  GI50: 2.14 µM
  TGI: 15.6 µM
[8]
  GI50: 5.06 µM
  TGI: 27.5 µM
[9]
  GI50: 7.74 µM
  TGI: 38.9 µM
[10]
  GI50: 2.8 µM
  TGI: > 47.7 µM

## Fc1ccc(-c2nn3c(COc4ccc(Cl)cc4)nnc3s2)cc1Oc1ccccc1
[1]
  GI50: > 49.5 µM
  TGI: > 79.3 µM
[2]
  GI50: 37 µM
  TGI: > 100 µM
[3]
  GI50: 41.6 µM
  TGI: > 100 µM
[4]
  GI50: 25.1 µM
  TGI: > 53.5 µM
[5]
  GI50: 40.8 µM
  TGI: > 100 µM
[6]
  GI50: 14.2 µM
  TGI: 30 µM
[7]
  GI50: > 60.6 µM
  TGI: > 100 µM
[8]
  GI50: 16.6 µM
  TGI: 35.6 µM
[9]
  GI50: 13.8 µM
  TGI: 30.3 µM
[10]
  GI50: > 46.1 µM
  TGI: > 67 µM

## O=C(Nc1ccc(C(F)(F)F)cc1[N+](=O)[O-])c1cccnc1
[1]
  TGI: > 100 µM
[2]
  TGI: > 100 µM
[3]
  TGI: > 100 µM
[4]
  TGI: > 100 µM
[5]
  TGI: > 100 µM
[6]
  TGI: > 100 µM
[7]
  TGI: > 100 µM
[8]
  TGI: > 100 µM
[9]
  TGI: > 100 µM
[10]
  TGI: > 100 µM

## C=C1CC/C=C(\C)CC[C@H](C(=C)C)[C@@H](O)/C=C(/CO)CCC1O (stereo not given in full)
[1]
  GI50: 71.7 µM
  TGI: > 100 µM
[2]
  GI50: > 100 µM
  TGI: > 100 µM
[3]
  GI50: > 100 µM
  TGI: > 100 µM
[4]
  GI50: 85.2 µM
  TGI: > 100 µM
[5]
  GI50: 4.58 µM
  TGI: > 100 µM
[6]
  GI50: > 100 µM
  TGI: > 100 µM
[7]
  GI50: > 100 µM
  TGI: > 100 µM
[8]
  GI50: > 100 µM
  TGI: > 100 µM
[9]
  GI50: 17.4 µM
  TGI: 68.7 µM
[10]
  GI50: > 100 µM
  TGI: > 100 µM

## CC1OC(OC2C(O[C@H]3CC[C@@]4(C)C(=CC[C@H]5[C@@H]6C[C@@H]7O[C@]8(CC[C@@H](C)CO8)[C@@H](C)[C@@H]7[C@@]6(C)CC[C@@H]54)C3)OC(CO)C(OC3OC(CO)C(O)C3O)C2O)C(O)C(O)C1O (stereo not given in full)
[1]
  GI50: 0.205 µM
  TGI: 1.43 µM and 0.362 µM
[2]
  GI50: 0.21 µM
  TGI: 1.37 µM and 0.522 µM
[3]
  GI50: 1.14 µM
  TGI: 1.71 µM and 2.35 µM
[4]
  GI50: 0.325 µM
  TGI: 1.44 µM
[5]
  GI50: 0.287 µM
  TGI: 2.39 µM and 0.849 µM
[6]
  GI50: 0.221 µM
  TGI: 1.34 µM and 0.464 µM
[7]
  GI50: 0.621 µM
  TGI: 1.99 µM and 1.94 µM
[8]
  GI50: 1.13 µM
  TGI: 1.84 µM and 2.34 µM
[9]
  TGI: 2.85 µM and 2.24 µM
[10]
  GI50: 0.243 µM
  TGI: 1.22 µM and 0.678 µM

## CCSc1ncc(Br)c(Sc2nc(N)nc3nc[nH]c23)n1
[1]
  GI50: 1.79 µM
  TGI: 8.68 µM
[2]
  GI50: 46.9 µM
  TGI: > 100 µM
[3]
  GI50: 12.4 µM
  TGI: > 100 µM
[4]
  GI50: 18.1 µM
  TGI: > 100 µM
[5]
  GI50: 7.05 µM
  TGI: > 100 µM
[6]
  GI50: 3.22 µM
  TGI: > 100 µM
[7]
  GI50: 4.07 µM
  TGI: > 100 µM
[8]
  GI50: 1.64 µM
  TGI: 24.4 µM
[9]
  GI50: 2.55 µM
  TGI: 25.9 µM
[10]
  GI50: 4.52 µM
  TGI: > 100 µM

## COc1ccc(C(=O)O/N=C2/CCCCC2CN(C)C)cc1 (stereo not given)
[1]
  TGI: > 100 µM
[2]
  TGI: > 100 µM
[3]
  TGI: > 100 µM
[4]
  TGI: > 100 µM
[5]
  TGI: > 100 µM
[6]
  TGI: > 100 µM
[7]
  TGI: > 100 µM
[8]
  TGI: > 100 µM
[9]
  TGI: > 100 µM
[10]
  TGI: > 100 µM

## COC(=O)[C@H](Cc1cn(C)cn1)NC(=O)[C@@H](NC(=O)Nc1cc(C(F)(F)F)cc(C(F)(F)F)c1)C(C)C
[1]
  GI50: 8.62 µM
  TGI: > 10 µM
[2]
  GI50: 2.05 µM
  TGI: 4.99 µM
[3]
  GI50: > 10 µM
  TGI: > 10 µM
[4]
  GI50: > 10 µM
  TGI: > 10 µM
[5]
  GI50: 1.98 µM
  TGI: 4.22 µM
[6]
  GI50: > 10 µM
  TGI: > 10 µM
[7]
  GI50: > 10 µM
  TGI: > 10 µM
[8]
  GI50: 2.91 µM
  TGI: 9.07 µM
[9]
  GI50: 9.9 µM
  TGI: > 10 µM
[10]
  GI50: 1.88 µM
  TGI: 3.97 µM

## COc1ccc2c(c1)[n+](=O)c(C(C)=O)c(C)n2[O-]
[1]
  TGI: > 100 µM
[2]
  TGI: > 100 µM
[3]
  TGI: > 100 µM
[4]
  TGI: > 100 µM
[5]
  TGI: > 100 µM
[6]
  TGI: > 100 µM
[7]
  TGI: > 100 µM
[8]
  TGI: > 100 µM
[9]
  TGI: > 100 µM
[10]
  TGI: > 100 µM

## O=C(CC1=Nc2nnc(-c3nnc4n3C(=O)C(CC(=O)C3CC3)=N4)n2C1=O)C1CC1
[1]
  TGI: > 100 µM
[2]
  TGI: > 100 µM
[3]
  TGI: > 100 µM
[4]
  TGI: > 100 µM
[5]
  TGI: > 100 µM
[6]
  TGI: > 100 µM
[7]
  TGI: > 100 µM
[8]
  TGI: > 100 µM
[9]
  TGI: > 100 µM
[10]
  TGI: > 100 µM

## CCN1CCN(c2nc(NNC(=O)c3ccccc3)nc(N3CCN(C(c4ccccc4)c4ccccc4)CC3)n2)CC1
[1]
  GI50: 1.88 µM
  TGI: 3.56 µM
[2]
  GI50: 1.8 µM
  TGI: 3.49 µM
[3]
  GI50: 1.9 µM
  TGI: 4.25 µM
[4]
  GI50: 3.05 µM
  TGI: 10.5 µM
[5]
  GI50: 3.42 µM
  TGI: 11.8 µM
[6]
  GI50: 1.82 µM
  TGI: 3.47 µM
[7]
  GI50: 2.3 µM
  TGI: 5.84 µM
[8]
  GI50: 12.7 µM
  TGI: 31.8 µM
[9]
  GI50: 3.31 µM
  TGI: 11.4 µM
[10]
  GI50: 2.89 µM
  TGI: 8.97 µM

## Nc1nc(=S)c2[nH]cnc2[nH]1
[1]
  GI50: 0.413 µM and 0.677 µM
[2]
  GI50: 1.94 µM and 6.07 µM
  TGI: 28.8 µM and 162 µM
[3]
  GI50: 0.708 µM and 5.94 µM
  TGI: > 70.3 µM and 110 µM and > 250 µM
[4]
  GI50: 1.49 µM and 3.11 µM
  TGI: > 100 µM and 241 µM and > 226 µM
[5]
  GI50: 0.816 µM and 3.25 µM and 3.14 µM
[6]
  GI50: 0.335 µM and 1.45 µM and 1.01 µM
[7]
  GI50: 0.515 µM and 2.51 µM and 1.7 µM
  TGI: > 100 µM and 51.6 µM and 38.9 µM
[8]
  GI50: 0.472 µM
  TGI: > 31.8 µM and 29.6 µM and 94.9 µM
[9]
  GI50: 0.375 µM and 0.542 µM and 1.26 µM
  TGI: 41.3 µM and 67.7 µM and 9.02 µM
[10]
  TGI: > 100 µM and 171 µM and > 250 µM

## N#CCCN(CCC#N)c1ccc(C=Nc2ccc(F)cc2)cc1
[1]
  TGI: > 100 µM
[2]
  TGI: > 100 µM
[3]
  TGI: > 100 µM
[4]
  TGI: > 100 µM
[5]
  TGI: > 100 µM
[6]
  TGI: > 100 µM
[7]
  TGI: > 100 µM
[8]
  TGI: > 100 µM
[9]
  TGI: > 92.6 µM
[10]
  TGI: > 100 µM
